Reference: US11472814B2, “Thienopyranones and furanopyranones as checkpoint inhibitors and modulators of anti-tumor immunity” (SignalRx Pharmaceuticals, Inc., priority 2017, dated 2022)

How the values were obtained:
[1] = test system: Bone marrow derived macrophages (BMDMs), M2 gene expression; test: M2 marker mRNA in IL4 stimulated bone marrow derived macrophages (RT PCR); format: cell-based, murine
Protocol: Bone marrow derived macrophages (MOs) (BMDMs) were exposed to IL4 or LPS for 24 hours to stimulate the M2 or M1 macrophage transition in presence of Compound 1 and the known SYK inhibitor Bay-61-3606 at 1 μM conc. M2 markers Mmr, Ym1, Fizz1 and Mgl mRNA and M1 markers I11, 116 and Tnfa mRNA was quantitated by RT PCR. Values are mean±SEM (n=3-4). Expression of gene of interest is normalized to GAPDH. […] The data provide direct evidence that Compound 1 can block the immunosuppressive macrophage M2 gene expression and activate the M1 gene expression and therefore activate antitumor innate immune cell differentiation in vitro.
Relative mRNA expression of IL4 or LPS polarized genes in murine bone marrow derived macrophages (BMDMs) treated with various concentrations of inhibitors in vitro. Conclusion: Compound 3 suppressed in vitro macrophage specific immunosuppressive M2 gene expression markers and augmented macrophage stimulatory immune response M1 genes respectively.

[2] = test system: T cells in CT26 tumors; test: Flow cytometric quantification of T cells infiltrating CT26 tumors; format: in vivo, mice
Protocol: Effect of Compound 3 treatment of CT26 tumor bearing mice in vivo 3 mg/kg by intraperitoneal injection QD (IP) for 14 days on number of CD3+/CD8+ T cells infiltrating the tumor tissue. Conclusion: Compound 3 increased CD8+ T cells in the tumor compartment by 800% in vivo. (n=6, p<0.001, t test) as compared to vehicle control treated mice.
Values represent mean±SEM. Conclusion: Compound 3 decreased CD4+ T cells by 5.6-fold and increased CD8+ T cells in the tumor compartment by 6% in vivo as compared to vehicle control treated mice.

[3] = Table 7, 200 nM, IL4 polarized murine BMDMs, control = 1
[4] = CT26 tumors, flow cytometry, vs vehicle

Cc1nn(-c2ccnc(Nc3ccc(-c4csc5c(=O)cc(N6CCOCC6)oc45)cc3)n2)cc1CN1CCC1 [Compound 3, 3-[p-(4-{4-[(1-Azetidinyl)methyl]-3-methyl-1H-pyrazol-1-yl}-2-pyrimidinylamino)phenyl]-5-morpholino-4-oxa-1-thia-7-indenone]
Arg relative mRNA expression (M2 gene) [1, 3]: 0.107 ± 0.01 | Il10 relative mRNA expression (M2 gene) [1, 3]: 0.058 ± 0.01 | Mmr relative mRNA expression (M2 gene) [1, 3]: 0.143 ± 0.03 | Tgfb relative mRNA expression (M2 gene) [1, 3]: 0.458 ± 0.01 | Vegf relative mRNA expression (M2 gene) [1, 3]: 0.294 ± 0.04 | macrophage immunosuppressive M2 gene expression markers ([1]; murine BMDMs, IL4 polarized, various concentrations): suppressed | increase of CD8+ T cells in the tumor compartment ([2]; CT26, 3 mg/kg IP QD 14 days, CD3+/CD8+, vs vehicle): 800% | decrease of CD4+ T cells [2, 4]: 5.6 fold | increase of CD8+ T cells in the tumor compartment [2, 4]: 6% | CD3+ T cells (% of live cells) ([2]; CT26 tumors, Compound 3 3 mg/kg IP QD 14 days, vehicle 1.1 ± 0.29): 8 ± 0.46 % of live cells | CD8+ T cells (% of CD3+ T cells) ([2]; CT26 tumors, flow cytometry, mean±SEM, n=3, vehicle 56 ± 3.9): 62 ± 2.0 % of CD3+ T cells | CD4+ T cells (% of CD3+ T cells) ([2]; CT26 tumors, flow cytometry, mean±SEM, n=3, vehicle 56 ± 5.29): 9.5 ± 0.7 % of CD3+ T cells
